Measured values taken from US20250325467A1, “COMPOSITIONS FOR PREVENTING OR TREATING SKIN AGING” (ESTETRA SRL, priority 2021, published 2025).
Entries after “also recorded” stand apart in the source; their conditions may differ.

Key:
[1] = test system: mouse lymphoma cell line L5178Y TK^+/−; experiment: Generation of reactive oxygen species (ROS) in mouse lymphoma cells; type: cell-based; conditions: test item 1 to 3000 μM; 3 h exposure; vs vehicle control; three experiments
Method: The objective of the study was to investigate the generation of reactive oxygen species (ROS) induced by the test item, estetrol (E4), in a mouse lymphoma cell line L5178Y TK^+/−.
L5178Y TK^+/− cells in logarithmic phase of growth were plated in black 96 well cell culture plates at 1×10^4 cells in 90 μL of cell culture media. Controls and test item in triplicate were applied to the cells as a 10× concentrate in 10 μL of a 10% ethanol solution in PBS (final concentration of ethanol on plate was 1%). Cells were incubated for 3 hours at 37° C., 5% CO2, and the generation of ROS was evaluated by fluorescence with a ROS reagent: the ROS reagent was freshly prepared by dissolving one ampoule of reagent (50 μg) in 70 μL DMSO and further diluting this with 2.1 mL of pre-warmed PBS. 10 μL of ROS reagent was added to each well and the plate were shaken for 30 seconds in the dark. The plates were incubated approximately at 37° C., 5% CO2 for 1 h 30 min and fluorescence was read on a plate scanner with excitation at 492 nm and emission at 520 nm.

[2] = test system: Normal Human Dermal Fibroblasts (NHDFs); experiment: Colonization of a standard acellular area (IBIDI chamber gap closure) by fibroblasts; type: cell-based; conditions: vs ethanol control; for NHDF Migration (+MMC) (colonization of the acellular area): presence of MMC, 6 h and 24 h
Method: The study consists in an in vitro assay aiming to evaluate the properties of E4 and E2 at 4 concentrations each on keratinocytes and fibroblasts. In this assay, the measurement of the colonization of a standard acellular surface generated from a confluent monolayer of cells using a dedicated culture device (IBIDI chamber) is performed. The assay is performed in absence and in presence of a proliferation inhibitor to focus on cell proliferation and migration or on migration only, respectively.
Normal Human forskin-derived Dermal Fibroblats (NHDFs, ATCC) cells were grown in phenol-free Dulbecco's Modified Eagle Medium (DMEM, ThermoFisher Scientific) supplemented with 10% of Foetal Bovine Serum (FBS, ThermoFisher Scientific), L-glutamine and antibiotics. The cells were maintained in a humidified incubator at 37° C. with a 5% CO2 atmosphere.
Cells were plated in 2-well silicone inserts with a defined cell free gap (IBIDI chambers; IBIDI GmbH, 80209) that was previously inserted on 12-well culture plates. This culture device allows to create a standardized 500 μm±100 μm cell free gap for monitoring cell colonization. 24 h after seeding, when the culture reached high confluency, cells in the insert were treated, or not, with mitomycin C (MMC) at 10 μg/ml during 2 h. After these 2 hours, the insert was removed, and cells were treated with E2 or E4 in presence or not of MMC for additional 2 h. Then, if appropriate, the culture medium was removed and cells were treated with E2 or E4 for 22 h, in absence of MMC.
For the assay, keratinocytes were plated in Epilife medium without HKGS and all the treatments were performed in this medium. Fibroblasts were plated in DMEM medium containing only 2,5% of FBS and the treatments were performed in absence of FBS.
E2 and E4 were applied at 4 concentrations each (10^−7M, 10^−8M, 10^−9M, 10^−10M). In parallel, cells were treated with a positive control (HKGS 1% for human keratinocytes and PDGF-BB at 10 ng/ml for human fibroblasts).
To monitor cell colonization and to evaluate the gap closure rate, pictures of the gap were taken after different times: at time 0 h, corresponding to the beginning of the treatment with E2 or E4 and to the removal of the culture insert, at time 6 h and at time 24 h (corresponding to the end of the treatments with E2 or E4). Pictures were taken with a microscope Zeiss (Axiover 25-10× objective) and with a camera Invenio2EIII (DeltaPix—Lux-Optic). The colonized areas were quantified from the pictures by the use of the WimAsis platform—WimScratch software. For each insert, 3 pictures were taken at each time. As each condition was performed in triplicates, it means a total of 9 pictures per condition and per time point of acquisition

IL-6 release from NHEKs = experiment: PMA/A23187-induced IL-6 release from NHEKs (ELISA, normalized to viability); type: cell-based, human; conditions: 24 h, vs stimulated EtOH 0.1% condition
Method: The Normal Human foreskin-derived Epidermal Keratinocytes (NHEKs, Lonza, 00192906), isolated from foreskin of 3 Caucasian donors, were grown in Epilife medium (Fisher Scientific, M-EPI-500-A) supplemented with Human Keratinocyte Growth Supplement (HKGS, Fisher Scientific, S-001-5) and antibiotics (Gentamycin, Fisher Scientific, 15710-049). The cells were maintained in a humidified incubator at 37° C. with a 5% CO2 atmosphere.
E4 and E2, provided as powder, were dissolved in 100% ethanol at 0.1M. They were then further diluted in ethanol and in culture medium to reach the appropriate concentrations. […] Practically, stock solutions 1000-fold concentrated were prepared in 100% ethanol, aliquoted and stored at −20° C. until cell application.
In order to induce the release of IL-6, NHEKs were exposed for 24 h with phorbol myristate acetate (PMA) at 10 ng/mL, in combination with calcium ionophore A23187 (Sigma Aldrich, C5722) at 2 μM. The treatments with the test or reference items were performed simultaneously with the inflammatory challenge. […] E4 was applied at 10^−4, 10^−5, 10^−6, 10^−7 and 10^−8 M and E2 at 10^−5, 10^−6, 10^−7, 10^−8 and 10^−9 M EtOH at 0.1% was tested as solvent control. Dexamethasone at 10 μM was used as anti-inflammatory reference. At the end of 24 h treatment, supernatants were harvested and stored at −20° C., and cell viability assay was assessed by MTS (see section 5). The kinetics of the treatments is outlined in FIG. 12. All the treatments were performed in triplicates (n=3).
The quantification of the release of inflammatory markers was performed using specific ELISA kits, based on standard curves, according to supplier's specifications. The results were then normalized to the corresponding cell viability (obtained by MTS assay).
The supplier's reference of the kits used for IL-6 quantification is as follows: IL-6, BioTechne, D6050.
At the end of the treatments and culture media collection, the viability of the cells was evaluated using the MTS (3-(4,5-dimethythiazol-2-yl)-5-(3-carboxy-methoxyphenyl)-2-(4-sulfophenyl)-2H-tetrazolium) assay. The effects of the treatments were compared to the untreated control condition and to the solvent control (EtOH 0.1%). The viability data were used in order to normalize the quantities of released inflammatory mediators.
NHEKs were treated as described in the methodology section. The quantification of IL-6 by ELISA was performed from the collected supernatants, following the instructions of the kit provider. Only 3 concentrations of the test items (chosen in accordance with the Sponsor following the results of the viability assay) were assessed in the ELISA.

`C[C@]12CC[C@@H]3c4ccc(O)cc4CC[C@H]3[C@@H]1[C@@H](O)[C@@H](O)[C@@H]2O` [E4, 1,3,5 (10)-estratrien-3,15alpha,16alpha,17beta-tetrol] was tested, and the “levels of ROS” value [1] was “dose-dependent decrease in the levels of ROS”, the “NHDF Migration (+MMC) (colonization of the acellular area)” value ([2]; 10^−7M) was “significantly increase the colonization of the acellular area; also recorded: significant activity” and the “NHDF Migration (+MMC) (colonization of the acellular area)” value ([2]; 10^−8M) was “significantly increase the colonization of the acellular area; also recorded: significant activity”. For the same compound, the “colonization of the cell-free area by NHDF, overall” value ([2]; absence of MMC, all four concentrations (10^−7M to 10^−10M)) was “not able to significantly increase the colonization of the cell-free area”, the “PMA/A23187-induced IL-6 release” value (IL-6 release from NHEKs; 10^−5 M) was “significantly and strongly decreased the release of IL-6; also recorded: strongly and significantly diminished” and the “PMA/A23187-induced IL-6 release” value (IL-6 release from NHEKs; 10^−6 M) was “significantly and strongly decreased the release of IL-6; also recorded: strongly and significantly diminished”. The “PMA/A23187-induced IL-6 release” value (IL-6 release from NHEKs; 10^−7 M) was “significantly and strongly decreased the release of IL-6; also recorded: strongly and significantly diminished”.
